From patent US20260176249A1, “PROTEIN KINASE INHIBITOR, PREPARATION METHOD THEREFOR, AND APPLICATION THEREOF” (SHANDONG LUYE PHARMACEUTICAL CO., LTD., priority 2021, published 2026)
Read-outs that look alike come from different tables or passages of the source.

Columns and labels:
[1] = tested on: HCT116 cells; assay: Inhibitory activity on HCT116 cell proliferation (ATPlite); type: cell-based; settings: Homo sapiens
Procedure: Cell culture medium: RPMI1640+10% FBS (GBICO)
Cell culture plate: 96-well plate (Shanghai Jingan Biotechnology Co., Ltd.)
Detection kit: ATPlite 1step Luminescence (PerkinElmer)
Detection instrument: BioTek multifunctional microplate reader
2. Test method: HCT116 cells in the logarithmic growth phase were seeded into a white-wall clear-bottom 96-well plate at a density of 720 cells per well, and cultured overnight in a 37° C., 5% CO2 incubator. […] After adding the drug, culturing was continued for 72 h in a 37° C., 5% CO2 incubator.
GraphPad Prism 7.0 was used to process the data, the cell inhibition rate curve was obtained and IC50 was calculated.

[2] = molecular target: T1, PLK1 kinase (Homo sapiens, UniProt P53350); assay: Inhibitory activity on PLK1 kinase; type: biochemical; settings: for Imax: maximum effect caused by the compound at the test concentration
T1 construct: purchased Carnabio (Carna Biosciences) 05-157
Procedure: Detection solution PerkinElmer #TRF0218-M
Detection instrument PerkinElemer EnVision
a. Using the Echo machine, the compounds to be tested were diluted by 1:3 on a 384-well plate, and the highest concentration was 1 μM, with a total of 10 concentration points, and each concentration was tested in duplicate wells.
b. 5 μL/well of PLK1 kinase and peptide substrate mixture were added to the assay plate (containing controls).
d. The reaction was initiated by adding 5 μL/well of ATP solution;
e. The assay plate was centrifuged at 1000 rpm for about 15 seconds, a film was used to seal the assay plate which was incubated at 23° C. for a period of time;
f. A detection solution was added to all wells of the assay plate;
g. The assay plate was centrifuged at 1000 rpm for approximately 15 seconds, a film was used to seal the assay plate which was incubated at 23° C. for 60 min.
h. The assay plate was read on EnVision. The test results were analyzed using XLFIT5 software.

[3] = Metabolic stability in mouse liver microsomes; type: in vitro ADME; settings: for CLint scaled at 1 µM / half-life at 1 µM: pH 7.4; for microsomal CLint at 1 µM: pH 7.4, read-out: CLint(mic)
Procedure: (§1) a. Preparation of phosphate buffer: The phosphate buffer powder was dissolved in 100 mL of pure water to prepare a phosphate buffer solution with a pH of 7.4 and a concentration of 100 mM, which was stored in a 4° C. refrigerator for later use.
(§2) b. All samples as well as the reference testosterone were dissolved in DMSO to obtain a 10 mM stock solution. The 10 mM stock solution was diluted to 100 μM with acetonitrile to obtain a working solution for later use.
(§3) c. Preparation of liver microsome working solution: Each of the mouse, rat and human liver microsome stock solutions (at concentration of 20 mg/mL) was taken and diluted to 0.56 mg/mL with 100 mM phosphate buffer solution to obtain the liver microsome working solution.
(§4) d. Preparation of solution: An appropriate amount of MgCl2 was weighed and used to prepare a MgCl2 solution at a concentration of 60 mM using 100 mM phosphate buffer solution. An appropriate amount of NADPH was weighed and used to prepare a NADPH solution at a concentration of 20 mM using 100 mM phosphate buffer solution. An equal volume of 60 mM MgCl2 solution was added to prepare an NADPH working solution containing 10 mM NADPH and 30 mM MgCl2. An acetonitrile solution containing 20 ng/mL tolbutamide was prepared as the stop solution.
(§5) e. Liver microsome incubation: 2 μL of each compound and the positive drug testosterone working solution were added to 178 μL of liver microsome working solution (0.56 mg/mL), mixed gently, and pre-incubated in a vibrating constant temperature water bath pot at 37° C. for 10 min. After adding 20 μL of NADPH working solution, the mixture was placed in a vibrating constant temperature water bath pot at 37° C. and timed incubation was started for 5, 10, 20, 30 and 60 min.
(§6) f. Stopping reaction: After the corresponding time of incubation, 400 μL of stop solution was added to stop the reaction, and then the sample was immediately shaken for 1 min. The sample was centrifuged at 13500 rpm for 10 min at 10° C. After centrifugation, the supernatant was removed, diluted with water according to the needs of each compound, and analyzed by LC-MS. For the 0-minute sample, the stop solution was first added and mixed evenly with the liver microsomes, and then the NADPH working solution was added. For the negative control sample, 20 μL of 30 mM MgCl2 solution was added instead of the NADPH working solution.
(§7) T1/2 and CLint(mic) were calculated by the following formula.
(§8) [formula] [formula] • CLint(mic)=0.693/T1/2/liver microsomal protein concentration during incubation (mg/mL) • CLint(ver)=CLint(mic)*liver microsomal protein (mg)/liver weight (g)*liver weight to body weight ratio
(§9) Liver microsomal protein (mg)/liver weight (g): the value is 45 in both animal and human species.
(§10) Liver weight to body weight ratio: the parameters for mice, rats and humans are 88, 40 and 20 g/kg respectively.

[4] = Metabolic stability in rat liver microsomes; type: in vitro ADME; settings: for CLint scaled at 1 µM / half-life at 1 µM: pH 7.4; for microsomal CLint at 1 µM: pH 7.4, read-out: CLint(mic)
Procedure: as §1, §2, §3, §4, §5, §6, §7, §8, §9, §10

[5] = Metabolic stability in human liver microsomes; type: in vitro ADME; settings: for CLint scaled at 1 µM / half-life at 1 µM: pH 7.4; for microsomal CLint at 1 µM: pH 7.4, read-out: CLint(mic)
Procedure: as §1, §2, §3, §4, §5, §6, §7, §8, §9, §10

[6] = Permeability and efflux transporter substrate evaluation in Caco-2 cells; type: in vitro ADME; design: Papp A→B at 120 min / Papp B→A at 120 min / efflux ratio at 120 min / Papp at 120 min: dose or concentration left out as unconfirmed; settings: human
Procedure: (§11) The cells were cultured in a carbon dioxide incubator for 21-28 days before being used for transport experiments. During this period, the culture medium was changed every four to five days.
(§12) This project uses Hank's balanced salt buffer (pH 7.40±0.05) containing 10 mM HEPES as the transport buffer. The culture medium was removed from the culture plate and the cells were washed twice with preheated transport buffer (approximately 75 μL and 40 mL of transport buffer for each apical well and basolateral receiver plate respectively). The donor solution and receiver solution were added to the corresponding cell plate wells (75 and 250 μL for each apical and basolateral well respectively), and the bidirectional transport experiment was started (apical to basolateral (A-B) and basolateral to apical (B-A)). The test concentration of the test substance was […], and two replicate wells were made for each dosing concentration. The test concentration of Digoxin was […], with dosing bidirectionally; the test concentrations of nadolol and metoprolol were both […], and they were dosed in one direction (A-B direction), and two replicate wells were made for each of the three control compounds.
(§13) The initial donor solution is the TO sample. After adding the sample, it was mixed with the transport buffer and stop solution in a certain proportion.
(§14) All samples were vortexed, and then centrifuged at 3220×g for 20 min at 20° C. A proper volume of supernatant was transferred to a sample assay plate, and the sample was stored at 2-8° C. if it was not analyzed immediately after the plate was sealed, and LC MS/MS method was used for analysis.
(§15) The Lucifer Yellow Rejection Assay was used to test the integrity of the Caco-2 cell layer.
(§16) The following formulas were used to calculate the apparent permeability coefficient (Papp, cm/s), efflux ratio (ER), and solution recovery (%) (% Solution Recovery).
(§17) [formula] [formula] [formula] • VR is the volume of the receiver side solution (side A is 0.075 mL, side B is 0.25 mL); Area is the relative surface area of the cell monolayer (0.0804 cm^2); Time is the incubation time (7200 s); C0 is the initial concentration (nM) of the test substance at the donor side or the peak area ratio of the control compound; VD is the volume of the donor side (side A is 0.075 mL, side B is 0.25 mL); CD and CR are the final concentration (nM) of the test substance at the donor side and the receiver side respectively or the peak area ratio of the control compound; • Lucifer yellow transmittance rate (% Lucifer Yellow) is calculated using the following formula:
(§18) [formula] • RFUApical and RFUBasolateral are the relative fluorescence intensity of lucifer yellow at the apical and basolateral sides respectively. VApical and VBasolateral are the sample loading volumes at the apical and basolateral sides respectively (0.075 and 0.25 mL respectively).

[7] = tested on: Caco-2 cells; assay: as above; type: in vitro ADME; design: Papp A→B at 120 min / Papp B→A at 120 min / efflux ratio at 120 min / Papp at 120 min: dose or concentration left out as unconfirmed; settings: Caco-2
Procedure: as §11, §12, §13, §14, §15, §16, §17, §18

[8] = HCT-116, HCT116 cells, 72 h, read-out: IC50
[9] = PLK1 kinase, highest concentration 1 μM, 10 points, read-out: IC50

T1 sequence (P53350 whole entry): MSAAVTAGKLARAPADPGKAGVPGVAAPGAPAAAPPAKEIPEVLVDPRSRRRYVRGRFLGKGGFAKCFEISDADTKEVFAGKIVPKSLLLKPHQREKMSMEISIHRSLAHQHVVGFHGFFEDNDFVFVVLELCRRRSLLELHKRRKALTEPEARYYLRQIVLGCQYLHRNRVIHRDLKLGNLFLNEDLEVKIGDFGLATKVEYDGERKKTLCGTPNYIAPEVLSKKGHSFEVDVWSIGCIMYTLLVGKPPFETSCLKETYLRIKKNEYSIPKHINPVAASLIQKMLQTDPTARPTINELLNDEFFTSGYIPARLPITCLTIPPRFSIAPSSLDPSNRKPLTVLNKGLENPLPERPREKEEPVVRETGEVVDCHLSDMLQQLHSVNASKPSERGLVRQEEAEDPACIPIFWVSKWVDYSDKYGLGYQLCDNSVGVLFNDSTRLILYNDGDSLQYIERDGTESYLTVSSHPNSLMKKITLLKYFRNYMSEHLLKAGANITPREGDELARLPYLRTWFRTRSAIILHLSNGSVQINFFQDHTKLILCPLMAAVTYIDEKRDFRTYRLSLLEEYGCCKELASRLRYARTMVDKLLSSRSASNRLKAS

Structure (SMILES)	IC50 [1, 8] [nM]	IC50 [2, 9] [nM]	Imax [2] [%]	60 min remaining amount [3] [%]	Clearance rate [3]	CLint scaled at 1 µM ([3]; mouse) [mL/min/kg]	half-life at 1 µM ([3]; mouse) [min]	microsomal CLint at 1 µM ([3]; mouse) [µL/min/mg]	60 min remaining amount [4] [%]	Clearance rate [4]	CLint scaled at 1 µM ([4]; rat) [mL/min/kg]	half-life at 1 µM ([4]; rat) [min]	microsomal CLint at 1 µM ([4]; rat) [µL/min/mg]	60 min remaining amount [5] [%]	Clearance rate [5]	CLint scaled at 1 µM ([5]; human) [mL/min/kg]	half-life at 1 µM ([5]; human) [min]	microsomal CLint at 1 µM ([5]; human) [µL/min/mg]	IC50 ([1]; HCT-116, 72 h) [nM]	further results
CN1CCN(c2ccc(OC(F)(F)F)c(Nc3ncc4c(n3)-c3c(c(C(N)=O)nn3CCO)N(C)C4)c2)CC1 [Compound 5]	924	73.3	76.81	–	–	–	–	–	–	–	–	–	–	–	–	–	–	–	–	–
CN1CCN(c2ccc(OC(F)(F)F)c(Nc3ncc4ncc5c(C(N)=O)nn(CCO)c5c4n3)c2)CC1 [Compound 6]	2720	–	–	–	–	–	–	–	–	–	–	–	–	–	–	–	–	–	–	–
CCc1sc(C(N)=O)c2c1-c1nc(Nc3cc(N4CCN(C)CC4)ccc3OC(F)(F)F)ncc1CC2 [Compound 7]	–	0.79	100.68	2.92	High	940	5.84	237	2.06	High	1090	2.3	603	14.1	High	60.7	20.6	67.4	–	efflux ratio at 120 min ([6]; Caco-2, pH 7.4): 1.97; Papp at 120 min ([6]; Caco-2, pH 7.4, read-out: Classification Permeability): < 0.5 ×10⁻⁶ cm/s; Papp A→B at 120 min ([6]; pH 7.4, Caco-2, apical to basolateral, 120 min, pH 7.40): 0.275 ×10⁻⁶ cm/s; Papp B→A at 120 min ([6]; pH 7.4, Caco-2, basolateral to apical, 120 min, pH 7.40): 0.542 ×10⁻⁶ cm/s; Classification Efflux transporter substrate [7]: Very unlikely or not (ERa < 2.00)
CN1CCN(c2ccc(OC(F)(F)F)c(Nc3ncc4c(n3)-c3c(c(C(=O)NO)nn3CCF)CC4)c2)CC1 [Compound 17]	–	0.814	99.97	2.46	High	470	11.7	119	1.93	High	410	6.08	228	26.0	Medium	41.8	29.9	46.4	–	–
CN1CCN(c2ccc(OC(F)(F)F)c(Nc3ncc4ccc5c(C(=O)NO)nn(CCO)c5c4n3)c2)CC1 [Compound 19]	–	–	99.97	22.0	Medium	–	–	–	11.9	Medium	–	–	–	51.9	Medium	–	–	–	96	CLint scaled at 1 µM [3]: 192 mL/min/kg; half-life at 1 µM [3]: 28.5 min; microsomal CLint at 1 µM [3]: 48.6 µL/min/mg; CLint scaled at 1 µM [4]: 127 mL/min/kg; half-life at 1 µM [4]: 19.6 min; microsomal CLint at 1 µM [4]: 70.8 µL/min/mg; IC50 [2]: 1.06 nM; CLint scaled at 1 µM [5]: 19.6 mL/min/kg; half-life at 1 µM [5]: 63.6 min; microsomal CLint at 1 µM [5]: 21.8 µL/min/mg
CCn1nc(C(N)=O)c2ccc3cnc(Nc4cc(N5CCN(C)CC5)ccc4OC(F)(F)F)nc3c21 [Compound 29]	–	–	–	–	–	–	–	–	–	–	–	–	–	–	–	–	–	–	77	–
